Key:
[1] = tested on: testosterone level in NCI-H295R cells; assay: cells; format: cell-based; conditions: Homo sapiens, 72 h; for IC50: read-out: IC50/nM; for inhibition at 1 µM: read-out: Testosterone level in H295R (Elisa) inh.% 1000 nM; for inhibition at 0.1 µM: read-out: Testosterone level in H295R (Elisa) inh.% 100 nM
Procedure: 1. The purpose of the experimental study was intended to detect the testosterone level in the NCI-H295R cells by adopting the Enzyme linked immunosorbent assay (ELISA), so as to evaluate the inhibitory effects of the compounds on the testosterone level in the NCI-H295R cells. The H295R cells were purchased from ATCC, the cell complete medium contained DMEM: F12+ 10% FBS +0.00625 mg/ml insulin +0.00625 mg/ml transferrin+6.25 ng/ml selenium +1.25 mg/ml BSA+0.00535 mg/ml linoleic acid, and the cells were cultured in a 37°C, 5% CO2 incubator. The cells in the exponential growth phase were collected, and cultured in a cytokine-free medium (phenol red 1640-free +1% PS+10% css FBS+1.25 mg/ml BSA +0.00625 mg/ml insulin + 0.00625 mg/ml transferrin+6.25 ng/ml selenium+0.00535 mg/ml linoleic acid) for 3 days. The cells in the exponential growth phase were collected on the third day. The cell suspension was adjusted with a cytokine-free medium to a corresponding concentration and plated at 60000 cells/well, with the volume being 90 µL/well. Subsequently, 10 µL of the compounds at different concentrations was added and the plate was incubated in a CO2 incubator for 3 days. After the incubation was completed, according to the operation instructions for testosterone Elisa kit (Beyotime, PT872), 50 µL of the cell culture supernatant was collected from each well and centrifuged at 500 g for 5 min at room temperature and then the resulting supernatant was collected. The samples were added to the corresponding wells at 25 µl/well, and then formulated horseradish peroxidase labeled testosterone was added at 75 µl/well. The mixture was fully mixed for 10 seconds. The reaction wells were sealed with a plate-sealing film (white) and the mixture was incubated at room temperature in the dark for 120 min. The plate was washed 3 times with a volume of 300 µl per well, and then placed onto thick absorbent paper and dried. Chromogenic reagent TMB solution was added at 100 µl/well. The reaction wells were sealed with a plate-sealing film (white) and the mixture was incubated at room temperature in the dark for 15-20 min. Subsequently, a termination solution was added at 50 µl/well, and after the mixture was fully mixed, the absorbance value OD450 was immediately measured. The absorbance readings were processed using Graphpad Prim 8.0 software and S-shaped concentration curves were plotted and the IC50 values were calculated using a four-parameter non-linear regression model. The results were processed according to formula (1), the inhibition rate of the compound at different concentrations was calculated, and the IC50 value of the compound with an inhibition rate of 50% was calculated using Graphpad Prim 8.0 software, wherein RLU compound was the readout of the treated group, and RLU control was the average value of the solvent control group. Inhibition rate% = 100-RLUcompound /RLUcontrol × 100 [formula] Table 1. Inhibitory activity on testosterone level in NCI-H295R cells

[2] = Pharmacokinetic test in rats; format: in vivo; conditions: rat, male SD rats, plasma; for Vd: read-out: Vdss
Procedure: 3.1 Experimental animals: Male SD rats (about 220 g, 6-8 weeks old, 6 rats/compound), purchased from Chengdu Dossy Experimental Animals Co., Ltd.
3.2 Experimental design: On the day of the experiment, the SD rats were randomly grouped by body weight. […] Table 3. Administration information
Before and after the administration, 0.1 ml of blood was taken from the orbit of the animals under isoflurane anesthesia and placed in an EDTAK2 centrifuge tube. The blood was centrifuged at 5000 rpm and 4°C for 10 min to collect plasma. […] Before analysis and detection, all samples were stored at -80°C. Table 4. Pharmacokinetic parameters of test compounds in plasma of rats

[3] = Pharmacokinetic test in mice; format: in vivo; conditions: mouse, male ICR mice, plasma; for Vd: read-out: Vdss
Procedure: 4.1. Experimental animals: Male ICR mice, 20-25 g, 6 mice/compound, purchased from Chengdu Dossy Experimental Animals Co., Ltd.
4.2 Experimental design: on the day of the experiment, the ICR mice were randomly grouped according to their body weights. […] Table 5. Administration information
vehicle for intravenous administration: 5% DMA+5% HS-15+90% NS; vehicle for intragastric administration: 0.5% MC
Before and after administration, 0.06 mL of blood was taken from the orbit under isoflurane anesthesia and placed in an EDTAK2 centrifuge tube. The tube was centrifuged at 5000 rpm at 4°C for 10 min, and plasma was collected. […] Before analysis and detection, all samples were stored at -80°C, and the samples were quantitatively analyzed by LC-MS/MS. Table 6. Pharmacokinetic parameters of test compounds in plasma of mice

[4] = po, intragastric administration (10 mg/kg)
[5] = intravenous administration (2.5 mg/kg)

SMILES | inhibition at 1 µM [1] [%] | inhibition at 0.1 µM [1] [%] | also measured
CS(=O)(=O)N1CCC(CCOc2cc(CN3Cc4ccccc4C3)ccn2)CC1 [Compound 10] | 85.4 | – | IC50 [1]: 81.9 nM
CS(=O)(=O)N1CCC(c2cc3oc(CN4Cc5ccc(C(F)(F)F)cc5C4)cc(=O)c3o2)CC1 [Compound 30] | 80.9 | 59.1 | IC50 [1]: 35.3 nM
CS(=O)(=O)N1CCC(C2=COc3cc(CN4Cc5ccc(C(F)(F)F)cc5C4)ccc3O2)CC1 [Compound 84] | 83 | 74 | IC50 [1]: 38 nM
O=C(N[C@H]1CC[C@H](CCOc2cc(CN3Cc4ccc(C(F)(F)F)cc4C3)ccn2)CC1)[C@H]1CC1(F)F [Compound 70] | 76.3 | 68.9 | –
N#Cc1cc(CN2Cc3ccc(C(F)(F)F)cc3C2)cc2cc(C3CCN(C(=O)OC4CC4)CC3)oc12 [Compound 53] | 85.5 | 72.5 | AUC(0-t) [2, 4]: 6750 ng·h/mL; half-life [2, 4]: 488 min; AUC(0-t) [2, 5]: 3110 ng·h/mL; clearance [2, 5]: 11 mL/min/kg; half-life [2, 5]: 792 min; Vd [2, 5]: 8.06 L/kg
O=C(OC1CC1)N1CCC(Cc2cc3oc(CN4Cc5ccc(C(F)(F)F)cc5C4)cc(=O)c3o2)CC1 [Compound 42] | 82.6 | 76.9 | –
CS(=O)(=O)N1CC(OC(=O)N2CCC(COc3ccc(CN4Cc5ccc(C(F)(F)F)cc5C4)c4c3OCCO4)CC2)C1 [Compound 37] | 77 | 87.1 | –
COc1cc(CN2Cc3ccc(C(F)(F)F)cc3C2)cc2cc(C3CCN(C(=O)OC4CC4)CC3)oc12 [Compound 54] | 78.4 | 59.1 | AUC(0-t) [2, 4]: 5840 ng·h/mL; half-life [2, 4]: 464 min; AUC(0-t) [2, 5]: 3560 ng·h/mL; clearance [2, 5]: 10.3 mL/min/kg; half-life [2, 5]: 618 min; Vd [2, 5]: 6.41 L/kg
CS(=O)(=O)N1CCC(CCn2ccc(CN3Cc4ccc(C5CC5)cc4C3)cc2=O)CC1 [Compound 16] | 89.4 | 51.7 | –
COc1nc(CN2Cc3ccc(C(F)(F)F)cc3C2)ccc1OCC1CCN(C(=O)C2CC(F)(F)C2)CC1 [Compound 75] | 90.4 | 76.2 | –
O=C(N[C@H]1CC[C@H](Cc2cc3oc(CN4Cc5ccc(C(F)(F)F)cc5C4)cc(=O)c3o2)CC1)C1CC1 [Compound 66] | 76.7 | 54.8 | –
O=C(OC1CC1)N1CCC(CCOc2ccnc(CN3Cc4ccc(C(F)(F)F)cc4C3)c2)CC1 [Compound 59] | 76 | 60 | –
O=C(OC1CC1)N1CCC(COc2ccc(CN3Cc4ccc(C(F)(F)F)cc4C3)c3ccc(F)nc23)CC1 [Compound 36] | 62 | 56.8 | –
N#Cc1cc(CN2Cc3ccc(C(F)(F)F)cc3C2)cc2cc([C@H]3CC[C@H](NC(=O)C4CC4)CC3)oc12 [Compound 69] | 80 | 79 | –
O=C(OC1CC1)N1CCC(/C=C/c2coc(CN3Cc4cc5c(cc4C3)CCC5)cc2=O)CC1 [Compound 43] | 77.8 | 75.6 | –
O=C(OC1CC1)N1CCC2(CC1)CC(Oc1cc(CN3Cc4ccc(C(F)(F)F)cc4C3)ccn1)C2 [Compound 48] | 78.2 | 77.5 | –
O=C(OC1CC1)N1CCC(CCOc2cc(CN3Cc4ccc(C(F)(F)F)cc4C3)ccn2)CC1 [Compound 40] | – | – | AUC(0-t) [2, 4]: 4210 ng·h/mL; half-life [2, 4]: 666 min; AUC(0-t) [2, 5]: 1950 ng·h/mL; clearance [2, 5]: 19.1 mL/min/kg; half-life [2, 5]: 586 min; Vd [2, 5]: 9.21 L/kg; IC50 [1]: 77 nM
O=C(N[C@H]1CC[C@H](CCOc2cc(CN3Cc4ccc(C5CC5)cc4C3)ccn2)CC1)C1CC1 [Compound 60] | – | – | AUC(0-t) [2, 4]: 27100 ng·h/mL; half-life [2, 4]: 142 min; AUC(0-t) [2, 5]: 6080 ng·h/mL; clearance [2, 5]: 6.8 mL/min/kg; half-life [2, 5]: 105 min; Vd [2, 5]: 0.951 L/kg
O=C(N[C@H]1CC[C@H](CCOc2cc(CN3Cc4ccc(C(F)(F)F)cc4C3)ccn2)CC1)OC1CC1 [Compound 51] | 78.5 | 74.4 | AUC(0-t) [2, 4]: 13600 ng·h/mL; half-life [2, 4]: 578 min; AUC(0-t) [2, 5]: 4000 ng·h/mL; clearance [2, 5]: 9.32 mL/min/kg; half-life [2, 5]: 511 min; Vd [2, 5]: 4.58 L/kg
O=C(N[C@H]1CC[C@H](c2cc3oc(CN4Cc5ccc(C(F)(F)F)cc5C4)cc(=O)c3o2)CC1)C1CC(F)(F)C1 [Compound 72] | 88 | 81 | –
CS(=O)(=O)N1CCC(CCOc2cc(CN3Cc4ccc(C5CC5)cc4C3)ccn2)CC1 [Compound 50] | 89.4 | 51.7 | AUC(0-t) [3, 4]: 7780 ng·h/mL; half-life [3, 4]: 164 min; AUC(0-t) [3, 5]: 2360 ng·h/mL; clearance [3, 5]: 17.3 mL/min/kg; half-life [3, 5]: 180 min; Vd [3, 5]: 3.37 L/kg; IC50 [1]: 130 nM
CS(=O)(=O)N1CCC(COc2ccc(CN3Cc4ccccc4C3)c3cccnc23)CC1 [Compound 4] | 89.2 | 81.5 | –
CS(=O)(=O)N1CC(OC(=O)N2CCC3(CC2)CC(Oc2cc(CN4Cc5ccc(C(F)(F)F)cc5C4)ccn2)C3)C1 [Compound 38] | 81 | 68.2 | AUC(0-t) [3, 4]: 13500 ng·h/mL; half-life [3, 4]: 219 min; AUC(0-t) [3, 5]: 4360 ng·h/mL; clearance [3, 5]: 9.45 mL/min/kg; half-life [3, 5]: 247 min; Vd [3, 5]: 2.78 L/kg
O=C(CC(F)(F)F)N[C@H]1CC[C@H](CCOc2cc(CN3Cc4ccc(C(F)(F)F)cc4C3)ccn2)CC1 [Compound 76] | 78 | 70 | –
CS(=O)(=O)N1CC(OC(=O)N2CCC(COc3ccc(CN4Cc5ccc(C(F)(F)F)cc5C4)c4c3S(=O)(=O)CC4)CC2)C1 [Compound 39] | 74.6 | 55.8 | –
CS(=O)(=O)N1CC(OC(=O)N2CCC(CCOc3cc(CN4Cc5ccsc5C4)ccn3)CC2)C1 [Compound 41] | 67.9 | 51.5 | –
CS(=O)(=O)N1CC(OC(=O)N2CCC(CCOc3cc(CN4Cc5ccc(C(F)(F)F)cc5C4)ccn3)CC2)C1 [Compound 49] | 65.2 | 57.7 | –
[2H]C([2H])([2H])C(=O)N[C@H]1CC[C@H](Cc2cc3oc(CN4Cc5ccc(C(F)(F)F)cc5C4)cc(=O)c3o2)CC1 [Compound 67] | 72 | 52 | –

From patent publication EP4700022A1, “CYP11A1 INHIBITORS AND USE THEREOF” (Xizang Haisco Pharmaceutical Co., Ltd., priority 2023, dated 2024)
